Reference: patent publication US5468756A, “Imidazonaphthyridine derivatives” (Kyowa Hakko Kogyo Co., Ltd., priority 1990, dated 1995)

How the values were obtained:
[1] = tested on: carrageenin-induced paw edema; experiment: Effect on carrageenin-induced paw edema; type: in vivo, male Wistar rats; conditions: Rattus norvegicus; p.o., 3 hours after carrageenin; read-out: Suppression rate for paw swelling, carrageenin-induced edema
Experimental: a) Effect on carrageenin-induced paw edema
(§1) Male Wistar rats weighing 150 to 160 g (n=3-5) were used in the experiment. After the right hind paw volume was measured with the plethysmograph (TK-101; Unicom Co., Ltd.), the test compound (25, 50 or 100 mg/kg) was orally administered. After one hour, 0.1 ml of 1% carrageenin (λ-carrageenin; PICNIN-A®, Zushi Kagaku Co., Ltd.) was subcutaneously injected into the right hind paw footpad. Three hours after the injection of carrageenin, the right hind paw volume was measured and the swelling rate was determined by the following equation 1. [formula] Vt: the right hind paw volume measured 3 hours after the injection of carrageenin
(§2) Vo: the right hind paw volume measured prior to the injection of carrageenin
(§3) The suppression rate was calculated by the following equation 2. [formula] Swt: the swelling rate of the group administered with the test compound Swc: the swelling rate of the control group administered with physiological saline solution

[2] = tested on: zymosan-induced paw edema; experiment: Effect on zymosan-induced paw edema; type: in vivo, male Wistar rats; conditions: Rattus norvegicus, po; read-out: Suppression rate for paw swelling, zymosan-induced edema
Experimental: as §1, §2, §3
b) Effect on zymosan-induced paw edema
The experiment was carried out in the same manner as in the carrageenin-induced paw edema test except that 1% zymosan (Zymosan A®; Sigma Chemical Co.) was used in place of 1% carrageenin and the right hind paw volume was measured […] the injection of the edema-inducing substance instead of 3 hours. The swelling rate and the suppression rate were calculated by equation 1 and equation 2, respectively.

[3] = tested on: Type III allergic reaction-induced pleurisy; experiment: Effect on Type III allergic reaction-induced pleurisy; type: in vivo, male Wistar rats; conditions: 100 mg/kg orally; rats; 4.5 h after induction of pleurisy
Experimental: c) Effect on Type III allergic reaction-induced pleurisy
1. Preparation of IgG fraction of rabbit anti-egg white albumin (anti-OA)
IgG was purified from rabbit anti-OA serum prepared in advance by the method of Koda et al. [Folia Pharmacol., Japon 66, 237, (1970)] in the following manner.
A saturated solution of ammonium sulfate (half volume of the serum) was added to the anti-OA serum, and the mixture was left for one hour at 4° C. The precipitate was taken by centrifugation (3,000 rpm, 30 min. 4° C.) and dissolved in phosphate buffer of Dulbecco. Then, ammonium sulfate fractionation was carried out three times in the same manner as above, whereby a purified IgG fraction was obtained.
2. Type III allergic reaction-induced pleurisy
Male Wistar rats weighing 225-250 g were pre-bred for several days and fasted overnight prior to the experiment. The test compound (100 mg/kg) was orally administered to the animals, and after 30 minutes, a solution of IgC of rabbit anti-OA (0.2 ml, 5 mg protein/ml) was injected into the pleural cavity of the animals from the right side of thorax under anesthesia with ether. Thirty minutes after the injection of IgG, OA (albumin egg grade III; Sigma Chemical Co.) was intravenously injected into the animals as an inducer of pleurisy. After two hours, Evans Blue (25 mg/kg) was intravenously injected, and four and a half hours after the induction of pleurisy, the animals were killed by bleeding.
Then, an exudate in the pleural cavity was obtained, and the volume of the exudate was measured. The pleural cavity was rinsed with 5 ml of physiological saline and the rinsings were added to the exudate. The number of infiltrated cells in the mixture was counted and the volume of the dye in the mixture was determined by the absorption at 625 nm [Agent Actions., 25, 326 (1988)]. The suppression rates for the volume of the exudate, the number of infiltrated cells and the volume of the dye in the pleural cavity were calculated by the following equation 3. [formula] […]

[4] = tested on: passive Schultz-Dale reaction; experiment: Effect on passive Schultz-Dale reaction (broncho-dilative activity), sensitized tracheal strips contracted by antigen; design: species or system male Hartley guinea pigs; conditions: guinea pig tracheal zig-zag strips, 37° C., antigen egg white albumin 1 μg/ml; read-out: Passive Schultz-Dale reaction IC50 (concentration of 50% relaxation rate)
Summary of the method: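 Male Hartley guinea pigs were passively sensitized i.p. with rabbit anti-OA serum, and tracheal zig-zag strips were taken 24 h later. Compounds were added cumulatively at the plateau, and IC50 (50% relaxation) was taken from the regression line of the concentration-relaxation curves.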

[5] = tested on: platelet activating factor (PAF)-induced mortality; experiment: Inhibition effect on platelet activating factor (PAF)-induced mortality; type: in vivo, male dd mice; conditions: Mus musculus, po, PAF 40 μg/kg i.v., 3 h, n = 10, control group survival 0-20%, read-out: Survival rate of test compound-administered group
Summary of the method: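 Male dd mice (28–32 g, 10 per group) dosed orally with 50 or 100 mg/kg compound or saline. PAF at 40 μg/kg given intravenously 1 h later; mortality recorded 3 h after PAF injection.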

In the case of `CCCCn1c(=O)c2ncn(C)c2c2cccnc21` [Compound 1, 5-(n-Butyl)-1-methyl-1H-imidazo[4,5-c][1,8]naphthyridin-4(5H)-one], the inhibition in vivo at 100 mg/kg [1] is reported as 40.1%, the inhibition in vivo at 100 mg/kg [2] is reported as 38.8% and the “Suppression rate, number of infiltrated cells in the exudate” value [3] is reported as 84.1%. The “Suppression rate, volume of dye in the exudate” value [3] was 80.3%, the “Suppression rate, volume of exudate” value [3] was 100% and the IC50 [4] was 12 µM. It also gave a responders at 100 mg/kg [5] of 90%.
